# From US20250009844A1, “MATURATION OF MUCOSAL DEFENSE AND GUT/LUNG FUNCTION IN THE PRETERM INFANT” (Novozymes A/S, priority 2017, published 2025)
# Entries after “also recorded” stand apart in the source; their conditions may differ. No end group written: not given here.
# Tests used:
# Type in all cases: in vivo
# [1] = Therapeutic high fat diet model in diet-induced obese mice, weight and fat percentage (Example 2); conditions: HFD plus hBD-2 vs standard HFD
# Description: The overall design of the study is shown in FIG. 1, lower panel, “Therapeutic study”. Mice and diets. The experiment elucidates the effect of hBD-2 and HD5 on the microbiota in diet-induced obese mice. A run-in period of 13 weeks where mice were fed a very HFD (60% energy from fat) preceded the intervention. Only mice meeting the criteria of a minimum of 12 gram weight gain (approximately 50% of initial bodyweight) during the run-in period were included in the final analyses. […] They were exposed to all experimental tests, but excluded from the analyses.
# Treatment regimen. Before the intervention all mice were MR scanned. Cages of mice were allocated to experimental groups based on their fat mass. All subsequent measures were paired with data from the same mouse before the intervention. A LFD (low fat diet) reference group was running in parallel. As controls for the intervention 2 additional groups were included: a) very HFD and b) LFD. Experimental mice stayed on the very HFD during the intervention. The mice were on the experimental diet for 10 weeks. They were co-housed throughout the experiment, 4 mice per cage, 3 cages per group. All tests ran over 3 days, 1 cage per group per day.
# [2] = system: postnatal day 14 C57BL/6J mice; test: Dithizone/Klebsiella induced necrotizing enterocolitis murine model (Example 9)
# Description: FIG. 40. Histological scoring system for evaluation of severity of necrotizing enterocolitis in a murine model of Klebsiella/Dithizone induced necrotizing enterocolitis. >2 indicates significant gut inflammation.
# Incidence of necrotizing enterocolitis and IL-22 concentration in a murine model of necrotizing enterocolitis. Intestinal mucosal injury consistent with human necrotizing enterocolitis was induced by a combination of Dithizone followed by Klebsiella pneumonia challenge by oral gavage in postnatal day 14 C57BL/6J mice. The severity of necrotizing enterocolitis was assessed by a histological scoring system with a score of >2 indicating significant damage (FIG. 40). Neither Dithizone nor K. pneumonia challenge induced mucosal injury by themselves, but the combination of Dithizone followed by K. pneumonia challenge induced severe and statistically significant mucosal damage measured 16 hours post challenge (FIG. 41).
# BALB/c mice = test: Therapeutic intervention in murine house dust mite/Freund's complete adjuvant driven model of allergic asthma, histopathology and cytokines (Example 7); conditions: for Histological inflammation of lung tissue: vs HDM challenged vehicle
# Protocol: Treatment regime: Female 7-10 weeks old BALB/c mice randomly allocated into 4 study groups one day prior to study start were subcutaneously (SC) sensitized to house dust mite (100 μg HDM in 200 μL saline plus Freund's complete adjuvant in 0.9% saline). Mice were intranasally (IN) challenged with HDM on day 14 (HDM 25 μg in 50 μL of saline). hBD-2 was administered IN or orally (0.4 mg/kg TID IN; 0.4 mg/kg TID orally, 50 μL phosphate buffered saline) on day 14. The initial dose was administered 60 minutes prior to challenge, and the subsequent doses approximately 6 hours apart (FIG. 3, groups 1-4)).
# Blood sampling: All terminal blood samples were collected via jugular vein bleeds. Blood was sampled to Li-heparin tubes, put on ice and immediately centrifuged at 4° C. Plasma was separated and stored at −80° C. until the potential SCFA analysis. Lung tissue sampling: The lungs were exposed and excised by gently opening the thorax and by cutting down either side of the sternum and ribs and trimming back. […]
# Cellular influx (mononuclears, eosinophils, neutrophils) was assessed semi-quantitatively on H&E stained slides separately for peri-bronchial/bronchiolar and perivascular space as follows: • 0 absent • 1 few scattered inflammatory cells • 2 larger aggregates • 3 marked accumulation of cells
# Overall score for inflammation was calculated as the sum of all individual scores. Goblet cell metaplasia, separately at a level of large airways and distal airways, was assessed at PAS-stained slides as follows: • 0 no mucus containing cells along basement membrane • 1 few positive cells along basement membrane with less than 75% of the cytoplasm stained • 2 few positive cells along basement membrane with more than 75% of the cytoplasm stained • 3 numerous positive cells along basement membrane with less than 75% of the cytoplasm stained • 4 numerous positive cells along basement membrane with more than 75% of the cytoplasm stained […]
substance,measurement,setting,value
human beta defensin 2 (GIGDPVTCLKSGAICHPVFCPRRYKQIGTCGLPGTKCCKKP; ends and bridges not checked; cysteine pairing not given here; listed as Homo sapiens) [hBD-2],Weight gain,"[1]; first 4 weeks post dietary intervention, p=0.07","tended to gain less weight the first 4 weeks post dietary intervention, although not significant"
same,Weight gain,"[1]; from week 4 to the end of the study period, p=0.82",gained similar weight as the standard HFD group
same,Concentration of IL-22,"[2]; 1.2 mg/kg one hour post challenge, 9 hours post challenge",statistically significant gut mucosa protective increase of IL-22; also recorded: statistically significantly increased
same,Incidence of necrotizing enterocolitis (histological score >2),"[2]; oral 1.2 mg/kg one dose one hour post K. pneumonia challenge, 16 hours post challenge",statistically significant reduction of the incidence of necrotizing enterocolitis; also recorded: dramatically and statistically significantly reduced the incidence of necrotizing enterocolitis to normal
same,Histological inflammation of lung tissue,BALB/c mice; intranasal 0.4 mg/kg TID on day 14,effectively inhibited the increase in histological inflammation of lung tissue
same,Histological inflammation of lung tissue,BALB/c mice; oral 0.4 mg/kg TID on day 14,effectively inhibited the increase in histological inflammation of lung tissue
same,IL-5 level in lung tissue homogenate,BALB/c mice; oral administration,Significant effects
